Data taken from ChEMBL document CHEMBL1649162, “Fenticonazole activity measured by the methods of the European Committee on Antimicrobial Susceptibility Testing and CLSI against 260 Candida vulvovaginitis isolates from two European regions and annotations on the prevalent genotypes” (2009).
In brackets after ≈: the same amount, converted by molar mass.

Columns and labels:
Type in all cases: functional
Nakaseomyces glabratus [1] = assay: Antimicrobial activity against Candida glabrata by EUCAST broth microdilution method
Nakaseomyces glabratus [2] = assay: Antimicrobial activity against Candida glabrata by CLSI M27-A2 broth microdilution method
Candida albicans [3] = assay: Antimicrobial activity against Candida albicans by EUCAST broth microdilution method
Candida albicans [4] = assay: Antimicrobial activity against Candida albicans by CLSI M27-A2 broth microdilution method
Candida parapsilosis [5] = assay: Antimicrobial activity against Candida parapsilosis ATCC 22019 by CLSI M27-A2 broth microdilution method; conditions: Lodderomyces parapsilosis
Candida parapsilosis [6] = assay: Antimicrobial activity against Candida parapsilosis ATCC 22019 by EUCAST broth microdilution method; conditions: Lodderomyces parapsilosis
Pichia kudriavzevii [7] = assay: Antimicrobial activity against Candida krusei ATCC 6258 by CLSI M27-A2 broth microdilution method
Pichia kudriavzevii [8] = assay: Antimicrobial activity against Candida krusei ATCC 6258 by EUCAST broth microdilution method

## Clc1ccc(C(Cn2ccnc2)OCc2ccc(Sc3ccccc3)cc2)c(Cl)c1 (configuration not stated) [FENTICONAZOLE]
Nakaseomyces glabratus [1]
  MIC50: 0.03 µg/mL (≈ 0.0659 µM)
Nakaseomyces glabratus [2]
  MIC50: 0.03 µg/mL (≈ 0.0659 µM)
Candida albicans [3]
  MIC50: 0.03 µg/mL (≈ 0.0659 µM)
Candida albicans [4]
  MIC50: 0.03 µg/mL (≈ 0.0659 µM)
Candida parapsilosis [5]
  MIC50: 0.03 µg/mL (≈ 0.0659 µM)
Candida parapsilosis [6]
  MIC50: 0.03 µg/mL (≈ 0.0659 µM)
Pichia kudriavzevii [7]
  MIC50: 0.06 µg/mL (≈ 0.132 µM)
Pichia kudriavzevii [8]
  MIC50: 0.06 µg/mL (≈ 0.132 µM)

## OC(Cn1cncn1)(Cn1cncn1)c1ccc(F)cc1F [FLUCONAZOLE]
Nakaseomyces glabratus [1]
  MIC50: 2 µg/mL (≈ 6.53 µM)
Nakaseomyces glabratus [2]
  MIC50: 2 µg/mL (≈ 6.53 µM)
Candida albicans [3]
  MIC50: 0.12 µg/mL (≈ 0.392 µM)
Candida albicans [4]
  MIC50: 0.12 µg/mL (≈ 0.392 µM)
Candida parapsilosis [5]
  MIC50: 2 µg/mL (≈ 6.53 µM)
Candida parapsilosis [6]
  MIC50: 0.5 µg/mL (≈ 1.63 µM)
Pichia kudriavzevii [7]
  MIC50: 16 µg/mL (≈ 52.2 µM)
Pichia kudriavzevii [8]
  MIC50: 32 µg/mL (≈ 104 µM)

## CCC(C)n1ncn(-c2ccc(N3CCN(c4ccc(OCC5COC(Cn6cncn6)(c6ccc(Cl)cc6Cl)O5)cc4)CC3)cc2)c1=O (configuration not stated) [ITRACONAZOLE]
Nakaseomyces glabratus [1]
  MIC50: 0.03 µg/mL (≈ 0.0425 µM)
Nakaseomyces glabratus [2]
  MIC50: 0.03 µg/mL (≈ 0.0425 µM)
Candida albicans [3]
  MIC50: 0.03 µg/mL (≈ 0.0425 µM)
Candida albicans [4]
  MIC50: 0.03 µg/mL (≈ 0.0425 µM)
Candida parapsilosis [5]
  MIC50: 0.06 µg/mL (≈ 0.085 µM)
Candida parapsilosis [6]
  MIC50: 0.06 µg/mL (≈ 0.085 µM)
Pichia kudriavzevii [7]
  MIC50: 0.12 µg/mL (≈ 0.17 µM)
Pichia kudriavzevii [8]
  MIC50: 0.03 µg/mL (≈ 0.0425 µM)

## CC(=O)N1CCN(c2ccc(OCC3COC(Cn4ccnc4)(c4ccc(Cl)cc4Cl)O3)cc2)CC1 (configuration not stated) [KETOCONAZOLE]
Nakaseomyces glabratus [1]
  MIC50: 2 µg/mL (≈ 3.76 µM)
Nakaseomyces glabratus [2]
  MIC50: 0.5 µg/mL (≈ 0.941 µM)
Candida albicans [3]
  MIC50: 0.12 µg/mL (≈ 0.226 µM)
Candida albicans [4]
  MIC50: 0.12 µg/mL (≈ 0.226 µM)
Candida parapsilosis [5]
  MIC50: 0.12 µg/mL (≈ 0.226 µM)
Candida parapsilosis [6]
  MIC50: 0.12 µg/mL (≈ 0.226 µM)
Pichia kudriavzevii [7]
  MIC50: 0.25 µg/mL (≈ 0.47 µM)
Pichia kudriavzevii [8]
  MIC50: 0.12 µg/mL (≈ 0.226 µM)
